≈ marks a conversion by molar mass, not a printed value.
Assays:
[1] = tested on: Mycolicibacterium smegmatis; assay: Antibacterial activity against Mycobacterium smegmatis ATCC 14468 assessed as log2 fold change in cytochrome bd-type quinol oxidase, subunit 1 expression at 3 ug/ml incubated for 12 hrs by mass spectrometric analysis; type: functional; conditions: dose 3 µg/ml
[2] = Acute toxicity in Albino mouse assessed as change in total leucocyte count at 50 to 2000 mg/kg, po measured after 14 days (reference value: 7400 mm3); type: organism-based; conditions: in vivo, 336 h, dose 50-2000 mg/kg, time 14 day
[3] = Renal toxicity in Albino mouse assessed as change in Bowman's capsule at 50 to 2000 mg/kg, po measured after 14 days; type: organism-based; conditions: in vivo, 336 h, dose 50-2000 mg/kg, time 14 day
[4] = Renal toxicity in Albino mouse assessed as extravasation of RBC at 50 to 2000 mg/kg, po measured after 14 days; type: organism-based, Erythrocyte; conditions: in vivo, 336 h, dose 50-2000 mg/kg, time 14 day
[5] = tested on: Mycolicibacterium smegmatis; assay: Antibacterial activity against Mycobacterium smegmatis ATCC 14468 assessed as log2 fold change in MscS expression at 3 ug/ml incubated for 12 hrs by mass spectrometric analysis; type: functional; conditions: dose 3 µg/ml
[6] = tested on: Mycobacterium tuberculosis; assay: Antitubercular activity against Mycobacterium tuberculosis H37Rv incubated for 5 days by microtiter plate method; type: functional; conditions: 120 h, time 5 day
[7] = tested on: Mycolicibacterium smegmatis; assay: Antibacterial activity against Mycobacterium smegmatis ATCC 14468 assessed as log2 fold change in L-(-)-methionine metabolite level by mass spectrometry analysis; type: functional
[8] = tested on: Mycolicibacterium smegmatis; assay: Antibacterial activity against Mycobacterium smegmatis ATCC 14468 assessed as log2 fold change in adenosine metabolite level by mass spectrometry analysis; type: functional
[9] = Cytotoxicity against african green monkey Vero cells assessed as cell viability at 100 ug/ml by MTT assay; type: toxicity, cell-based; conditions: chlorocebus sabaeus, at 100 µg/mL, read-out: Activity
[10] = Acute toxicity in po dosed Albino mouse assessed as mortality after 14 days; type: organism-based; conditions: in vivo, time 14 day
[11] = Acute toxicity in Albino mouse assessed as change in neutrophils at 50 to 2000 mg/kg, po measured after 14 days (reference value: 75%); type: organism-based; conditions: in vivo, 336 h, dose 50-2000 mg/kg, time 14 day
[12] = Cytotoxicity against african green monkey Vero cells assessed as cell viability at 3.125 ug/ml by MTT assay; type: toxicity, cell-based; conditions: chlorocebus sabaeus, at 3.125 µg/mL, read-out: Activity
[13] = Acute toxicity in Albino mouse assessed as change in serum urea level at 50 to 2000 mg/kg, po measured after 14 days (reference value: 46 mg/dl); type: organism-based; conditions: in vivo, 336 h, dose 50-2000 mg/kg, time 14 day
[14] = tested on: Mycolicibacterium smegmatis; assay: Antibacterial activity against Mycobacterium smegmatis ATCC 14468 assessed as log2 fold change in 24-methylenecholesterol metabolite level by mass spectrometry analysis; type: functional
[15] = Hepatotoxicity in Albino mouse assessed as change in central vein at 50 to 2000 mg/kg, po measured after 14 days; type: toxicity, organism-based; conditions: in vivo, 336 h, dose 50-2000 mg/kg, time 14 day
[16] = tested on: Mycolicibacterium smegmatis; assay: Antibacterial activity against Mycobacterium smegmatis ATCC 14468 assessed as log2 fold change in citrate transporter expression at 3 ug/ml incubated for 12 hrs by mass spectrometric analysis; type: functional; conditions: dose 3 µg/ml
[17] = Hepatotoxicity in Albino mouse assessed as change in hepatic artery at 50 to 2000 mg/kg, po measured after 14 days; type: toxicity, organism-based, Liver; conditions: in vivo, 336 h, dose 50-2000 mg/kg, time 14 day
[18] = Hepatotoxicity in Albino mouse assessed as change in bile duct at 50 to 2000 mg/kg, po measured after 14 days; type: toxicity, organism-based, Liver; conditions: in vivo, 336 h, dose 50-2000 mg/kg, time 14 day
[19] = tested on: Mycolicibacterium smegmatis; assay: Antibacterial activity against Mycobacterium smegmatis ATCC 14468 assessed as log2 fold change in signal transduction histidine kinase expression at 3 ug/ml incubated for 12 hrs by mass spectrometric analysis; type: functional; conditions: dose 3 µg/ml
[20] = Acute toxicity in Albino mouse assessed as change in SGOT count at 50 to 2000 mg/kg, po measured after 14 days (reference value: 42 IU/L); type: organism-based; conditions: in vivo, 336 h, dose 50-2000 mg/kg, time 14 day
[21] = Hepatotoxicity in Albino mouse assessed as change in portal vein at 50 to 2000 mg/kg, po measured after 14 days; type: toxicity, organism-based; conditions: in vivo, 336 h, dose 50-2000 mg/kg, time 14 day
[22] = Pulmonary toxicity in Albino mouse assessed as change in bronchi structure at 50 to 2000 mg/kg, po measured after 14 days; type: organism-based; conditions: in vivo, 336 h, dose 50-2000 mg/kg, time 14 day
[23] = Pulmonary toxicity in Albino mouse assessed as change in squamous pneumocytes at 50 to 2000 mg/kg, po measured after 14 days; type: organism-based; conditions: in vivo, 336 h, dose 50-2000 mg/kg, time 14 day
[24] = tested on: Mycolicibacterium smegmatis; assay: Antibacterial activity against Mycobacterium smegmatis ATCC 14468 assessed as log2 fold change in probable cytochrome c oxidase subunit 3 expression at 3 ug/ml incubated for 12 hrs by mass spectrometric analysis; type: functional; conditions: dose 3 µg/ml
[25] = tested on: Mycolicibacterium smegmatis; assay: Antibacterial activity against Mycobacterium smegmatis ATCC 14468 assessed as log2 fold change in PknH_C domain-containing protein expression at 3 ug/ml incubated for 12 hrs by mass spectrometric analysis; type: functional; conditions: dose 3 µg/ml
[26] = Acute toxicity in Albino mouse assessed as mortality at 2000 mg/kg, po after 2 to 4 hrs; type: organism-based; conditions: in vivo, time 2-4 hrs
[27] = tested on: Mycolicibacterium smegmatis; assay: Antibacterial activity against Mycobacterium smegmatis ATCC 14468 assessed as log2 fold change in ABC transporter ATP binding protein expression at 3 ug/ml incubated for 12 hrs by mass spectrometric analysis; type: functional; conditions: dose 3 µg/ml
[28] = Renal toxicity in Albino mouse assessed as change in renal tubules at 50 to 2000 mg/kg, po measured after 14 days; type: organism-based; conditions: in vivo, 336 h, dose 50-2000 mg/kg, time 14 day
[29] = Renal toxicity in Albino mouse assessed as change in tubular capillaries at 50 to 2000 mg/kg, po measured after 14 days; type: organism-based; conditions: in vivo, 336 h, dose 50-2000 mg/kg, time 14 day
[30] = Acute toxicity in Albino mouse assessed as change in platelet count at 50 to 2000 mg/kg, po measured after 14 days (reference value: 3.24 mm3); type: organism-based; parameters: unit not given here; conditions: in vivo, 336 h, dose 50-2000 mg/kg, time 14 day
[31] = tested on: Mycolicibacterium smegmatis; assay: Antibacterial activity against Mycobacterium smegmatis ATCC 14468 assessed as log2 fold change in transposase expression at 3 ug/ml incubated for 12 hrs by mass spectrometric analysis; type: functional; conditions: dose 3 µg/ml
[32] = tested on: Mycolicibacterium smegmatis; assay: Antibacterial activity against Mycobacterium smegmatis ATCC 14468 assessed as log2 fold change in TrkA expression at 3 ug/ml incubated for 12 hrs by mass spectrometric analysis; type: functional; conditions: dose 3 µg/ml
[33] = Acute toxicity in Albino mouse assessed as change in serum creatine level at 50 to 2000 mg/kg, po measured after 14 days (reference value: 0.9 mg/dl); type: organism-based; conditions: in vivo, 336 h, dose 50-2000 mg/kg, time 14 day
[34] = tested on: Mycolicibacterium smegmatis; assay: Antibacterial activity against Mycobacterium smegmatis ATCC 14468 assessed as log2 fold change in integral membrane protein expression at 3 ug/ml incubated for 12 hrs by mass spectrometric analysis; type: functional; conditions: dose 3 µg/ml
[35] = Acute toxicity in Albino mouse assessed as change in RBC count measured per million cells at 50 to 2000 mg/kg, po measured after 14 days (reference value: 9.15 microL); type: organism-based, Erythrocyte; conditions: in vivo, 336 h, dose 50-2000 mg/kg, time 14 day
[36] = Pulmonary toxicity in Albino mouse assessed as change in alveoli structure at 50 to 2000 mg/kg, po measured after 14 days; type: organism-based; conditions: in vivo, 336 h, dose 50-2000 mg/kg, time 14 day
[37] = tested on: Mycolicibacterium smegmatis; assay: Antibacterial activity against Mycobacterium smegmatis ATCC 14468 assessed as log2 fold change in MmpL protein expression at 3 ug/ml incubated for 12 hrs by mass spectrometric analysis; type: functional; conditions: dose 3 µg/ml
[38] = Acute toxicity in Albino mouse assessed as change in eosinophils at 50 to 2000 mg/kg, po measured after 14 days (reference value: 3%); type: organism-based; conditions: in vivo, 336 h, dose 50-2000 mg/kg, time 14 day
[39] = Cytotoxicity against african green monkey Vero cells assessed as cell viability at 12.5 ug/ml by MTT assay; type: toxicity, cell-based; conditions: chlorocebus sabaeus, at 12.5 µg/mL, read-out: Activity

Row | SMILES | log2FC [1] | Activity [2] [mm3] | Activity [3] | Activity [4] | log2FC [5] | MIC [6] [µM] | log2FC [7] | log2FC [8] | viability at 100 ug/ml [9] [%] | Activity [11] [%] | viability at 3.125 ug/ml [12] [%] | Activity [13] [mg/dL] | log2FC [14] | Activity [15] | log2FC [16] | Activity [17] | Activity [18] | log2FC [19] | Activity [20] [IU/L] | Activity [21] | other results
1 | COc1ccc(C2C(Cl)C(=O)N2C2=C(Cl)C(=O)c3ccccc3C2=O)cc1 (stereo not drawn) | 5.6 | 9600 | Non-Toxic | Non-Toxic | -2.45 | 31.1 (≈ 12.5 µg/mL) | -5.44 | -2.55 | 0.7 | 62 | 100 | 50 | 1.74 | Non-Toxic | -1.76 | Non-Toxic | Non-Toxic | -6.64 | 95 | Non-Toxic | LD50 at 336 h [10]: 50 mg/kg; Activity [22]: Non-Toxic; Activity [23]: Non-Toxic; log2FC [24]: 2.57; log2FC [25]: -6.64; Activity [26]: Toxic; log2FC [27]: -1.98; Activity [28]: Non-Toxic; Activity [29]: Non-Toxic; Activity [30]: 5.82; log2FC [31]: -1.22; log2FC [32]: -6.64; Activity [33]: 0.8 mg/dL; log2FC [34]: -6.64; Activity [35]: 9.4; Activity [36]: Non-Toxic; log2FC [37]: -1.45; Activity [38]: 4%; viability at 12.5 ug/ml [39]: 68.1%
2 | O=C1C(Cl)=C(Cl)C(=O)c2ccccc21 [Dichlon] | 5.6 | 10400 | Non-Toxic | Non-Toxic | -4.39 | 13.8 (≈ 3.12 µg/mL) | -3.97 | -1.31 | 28.7 | 43 | 100 | 51 | 2.01 | Non-Toxic | -3.36 | Non-Toxic | Non-Toxic | -6.64 | 29 | Non-Toxic | Activity [22]: Non-Toxic; Activity [23]: Non-Toxic; log2FC [24]: 2.56; log2FC [25]: -6.64; log2FC [27]: -2.17; Activity [28]: Non-Toxic; Activity [29]: Non-Toxic; log2FC [31]: -1.92; log2FC [32]: -6.64; Activity [33]: 0.8 mg/dL; log2FC [34]: -6.64; Activity [36]: Non-Toxic; log2FC [37]: -6.64; Activity [38]: 3%; viability at 12.5 ug/ml [39]: 100%
3 | CN(C)c1ccc(C2C(Cl)C(=O)N2C2=C(Cl)C(=O)c3ccccc3C2=O)cc1 (stereo not drawn) | 5.66 | 9300 | Non-Toxic | Non-Toxic | -3.03 | 15.1 (≈ 6.25 µg/mL) | -4.48 | -1.69 | 10.2 | 60 | 100 | 48 | 0.69 | Non-Toxic | -1.02 | Non-Toxic | Non-Toxic | -6.64 | 109 | Non-Toxic | LD50 at 336 h [10]: 300 mg/kg; Activity [22]: Non-Toxic; Activity [23]: Non-Toxic; log2FC [24]: 2.37; log2FC [25]: -6.64; Activity [26]: Toxic; log2FC [27]: -6.64; Activity [28]: Non-Toxic; Activity [29]: Non-Toxic; Activity [30]: 6.22; log2FC [31]: -6.64; log2FC [32]: -6.64; Activity [33]: 0.7 mg/dL; log2FC [34]: -1.06; Activity [35]: 9.67; Activity [36]: Non-Toxic; log2FC [37]: -6.64; Activity [38]: 5%; viability at 12.5 ug/ml [39]: 79.5%
